What was measured:
[1] = tissue distribution of orally administered ^34S-labeled GSSSG by LC-MS/MS; type: in vivo, mice; details: 2 hours after oral ^34S-labelled GSSSG 50 mg/kg; mice
Protocol: To determine the tissue distribution of orally-administered GSSSG, ^34S-labelled GSSSG was administered by gavage to each of four mice. ^34S-labelled GSSSG was synthesized and provided by Kyowa Hakko Bio CO., LTD. Two hours after a single dose of ^34S-GSSSG, DRG, lumber spinal cord, brain, liver, and plasma were obtained and snap frozen for later analysis.
We examined whether administrated GSSSG via oral gavage reaches peripheral nervous system using liquid chromatography with tandem mass spectrometry (LC-MS/MS). Fifty mg/kg of ^34S-labeled GSSSG (in which the middle sulfur, that is a sulfane sulfur, was replaced to ^34S; G-^32S-^34S-^32S-G) was orally administered to mice. Two hours after administration, plasma and tissue from liver, brain, lumbar spinal cord, and lumbar DRG (L1 to L6) were collected and immediately frozen at −80° C. Tissues were homogenized with 5 mM of β-(4-hydroxyphenyl)ethyl iodoacetamide (HPE-IAM) (Santa Cruz, Cat No. SC-473766) and incubated for 20 minutes at 37° C. to promote HPE-IAM reaction that stabilizes persulfide residues. Proteins were removed by centrifugation at 15,000 g for 10 minutes at 4° C., and total protein concentration was measured by BCA assay. The supernatant was diluted by 0.1% formic acid for LC-MS/MS analysis. The amount of ^34S-labeled GSSSG was quantified in selective reaction monitoring (SRM) with precursor ion (647.14 m/z), product ion (389.1 m/z), and HCD (21 v) and normalized by protein concentration. The ratio of ^34S-labeled reactive sulfur species to endogenous (^32S) reactive sulfur species (GSSH, CysSSH, and CysSSSCys) were also calculated from their peak area measured by Dionex UltiMate 3000 RS UPLC-Orbitrap Exploris 480 mass spectrometer (Thermo Scientific Scientific, Waltham, MA, USA). In brief, samples were subjected to the UPLC system with a Hypersil Gold C-18 (100×2.1 mm, 3.0 μm, Thermo Fisher Scientific) column and they were eluted by using a linear methanol gradient of the mobile phase (0-90%, 15 minutes) in the presence of 0.1% formic acid at a flow rate of 0.2 ml/minutes at 40 degrees. The raw data were obtained by Compound Discoverer software 3.3. Molecular weight of reactive sulfur species combined with HPE-IAM were reported in previous studies.

primary cortical neurons = test: axonal degeneration in primary cortical neurons; type: cell-based, mice; details: 10 μM of GSSSG
[2] = tested on: MDA-MB-231 human breast cancer cells; test: MDA-MB-231 cell viability by LDH Cytotoxicity Detection assay; type: cell-based; details: 24 hours incubation
Protocol: To examine whether co-administration of GSSSG affects anti-tumor effects of paclitaxel, we conducted experiments using MDA-MB-231, a human breast cancer cell line (HTB-26, ATCC). Cells were cultured in the medium of 90% RPMI1640 (Corning, Cat No. 10-040-CV), 10% FBS, and 1% penicillin/streptomycin. After being seeded into a 96-well plate at the density of 20,000/well and cultured overnight, they were exposed to different concentrations of paclitaxel (0.125 μM, 0.25 μM, 0.5 μM, 1 μM, and 2 μM) and incubated for 24 hours. Cell viability was evaluated by LDH Cytotoxicity Detection Kit (Roche, Cat No. 11644793001). Briefly, a plate was centrifuged at 250×g for 10 minutes. Cells were washed with PBS and incubated with 100 μl of 1% Triton X-100 at 37° C. for 30 minutes. After mixing with assay enzyme for 30 minutes at 25° C., absorbance was measured at wavelength 492 nm to determine cell viability. Inhibitory effects of paclitaxel were calculated by half-maximal inhibitory concentration (IC50). We utilized the IC50 of paclitaxel obtained with LDH assay to examine the anti-tumor effect of paclitaxel and co-administration of GSSSG using the trypan blue exclusion assay. […] MDA-MB-231 cells were seeded 5.6×10,000/well in a 6-well plate and incubated overnight. […] After being stripped by 0.25% trypsin, live cells were counted under 0.04% trypan blue. Five wells were evaluated per group.

| Compound | plasma level of GSSSG [1] | axonal degeneration in primary cortical neurons (primary cortical neurons) | IC50 [2] |
| --- | --- | --- | --- |
| N[C@@H](CCC(=O)N[C@@H](CSSSC[C@H](NC(=O)CC[C@H](N)C(=O)O)C(=O)NCC(=O)O)C(=O)NCC(=O)O)C(=O)O [GSSSG, glutathione trisulfide] | 58 nM | prevented axonal degeneration | – |
| CC(=O)O[C@H]1C(=O)[C@@]2(C)[C@H]([C@H](OC(=O)c3ccccc3)[C@]3(O)C[C@H](OC(=O)[C@H](O)[C@@H](NC(=O)c4ccccc4)c4ccccc4)C(C)=C1C3(C)C)[C@]1(OC(C)=O)CO[C@@H]1C[C@@H]2O [paclitaxel, Paclitaxel, reference compound] | – | – | 1660 nM |

— patent US20260097091A1, “ADMINISTRATION OF GLUTATHIONE TRISULFIDE TO AMELIORATE PERIPHERAL NEUROPATHY” (The General Hospital Corporation, priority 2022, published 2026)
